Columns and labels:
Assay type in all cases: cell-based, human
[1] = test system: CAV1; test: Western blotting of CAV1 expression after siRNA transfection in pulmonary adenocarcinoma cell lines
Description: (§1) Western blotting analysis and IP-WB analysis were conducted by the standard methods using an Immobilon-P filter (manufactured by Millipore Corp.) and an enhanced chemiluminescence system (manufactured by GE Healthcare Inc.). pCMVpuro-Cavin-1-WT was coexpressed with various ROR1 expression constructs such as the wild type (WT), TKΔ473-564 (TKΔ1), TK564-655 (TKΔ2), TKΔ655-746 (TKΔ3), TKΔ473-655 (TKΔ1+×2), TKΔ564-746 (TKΔ2+Δ3), and TKΔ473-746 (TKA1+Δ2+A3) to identify the binding site of ROR1 and Cavin-1. pCMVpuro-CAV1-WT was coexpressed with ROR1 expression constructs such as the wild type (WT), TKΔ473-564 (TKΔ1), TKΔ564-655 (TKΔ2), TKΔ655-746 (TKΔ3), ST1Δ748-782 (ΔST1), PΔ784-851 (ΔP), and ST2Δ853 to 876 (ΔST2) to identify the binding site of ROR1 and CAV1. For these, the cells were recovered 24 hours after transfection by Fugene6 (Promega) using COS-7 cells, and IP-WB analysis was conducted.
(§2) Transfection of the siRNA (20 nM each) was conducted in accordance with the manufacturer's instruction manual using lipofectamine RNAiMAX (manufactured by Invitrogen). […] Cells were also recovered 120 hours after transfection for analysis by colorimetry to measure cell proliferation.

[2] = test system: caveolae of NCI-H1975 cells; test: Electron microscope analysis of caveolae by rapid freezing/freeze-fracture replica labeling; details: 72 hours after transfection, n=18 regions
Description: 20 μm thick gold foil was placed in a culture dish, and NCI-H1975 cells, which are a pulmonary adenocarcinoma cell line, were cultured on top. Transfection of siControl or siROR1 was conducted. Rapid freezing was conducted using a high-pressure freezing machine (Leica Inc.) 72 hours after transfection. Freeze-fracture replicas were prepared using a BAF400 apparatus (Baltec Co.), and labeled by mouse anti-CAV2 antibody (BD Transduction Co.) after treatment by SDS. A second antibody reaction was then conducted using 10 nm gold colloid-conjugated goat anti-mouse IgG antibody (British Biocell International Co.), and the cells were examined by a JEM-1011 electron microscope. For caveolae distribution density measurement, randomly selected regions under the electron microscope (18 random cell membrane regions of 17-50 μm) were measured, and the cell membrane region of each electron micrograph was measured using ImageJ.

[3] = test system: CAV1; test: Western blotting of CAV1 after siROR1 treatment in cells expressing ROR1 wild type or mutants with silent mutation; details: three days
Description: In vitro mutagenesis was conducted using KOD-plus-DNA polymerase (Toyobo), and pCMVpuro-ROR1-WTm (siROR1) and pCMVpuro-ROR1-KDm (siROR1) including silent mutations for siROR1 were prepared. Following primer of not involving amino acid substitution was used for production.
Wild type ROR1 (ROR1-WT), wild type ROR1 with an added silent mutation for siROR1 (ROR1-WTm), or kinase activity-deficient ROR1 with a silent mutation for siROR1 added (ROR1-KDm) were transfected into NCI-H1975 cells. Selection by puromycin (1.5 μg/mL) was performed after 24 hours, and the single clones were collected, and stable clones that expressed the respective ROR1 (constitutive ROR1-expressing cell lines) were prepared. These stable clones were then treated by siControl or siROR1, and the cells were recovered after three days and Western blotting analysis was conducted.
In vitro mutagenesis was conducted using KOD-plus-DNA polymerase (Toyobo), and pCMVpuro-ROR1-WTm (siROR1) and pCMVpuro-ROR1-TKA2+TKA3m (siROR1) including silent mutations for siROR1 were prepared. Following primer of not involving amino acid substitution was used for production.
(§3) Wild type ROR1 (ROR1-WT), wild type ROR1 with an added silent mutation for siROR1 (ROR1-WTm), or cavin-1 binding region-deficient ROR1 with an added silent mutation for siROR1 (ROR1-TKA2+TKA3m) were transfected into PC-9 cells. Selection by puromycin (1.0 μg/mL) was performed after 24 hours, and the cells were recovered as bulk clones and reseeded in 6-well plates. The cells were then treated by siControl or siROR1, recovered after three days, and Western blotting analysis was conducted.
In vitro mutagenesis was conducted using KOD-plus-DNA polymerase (Toyobo), and pCMVpuro-ROR1-WTm (siROR1) and pCMVpuro-ROR1-AS/T2m (siROR1) including silent mutations for siROR1 were prepared. Following primer of not involving amino acid substitution was used for production.
as §3, with “CAV1” for “cavin-1”, “(ROR1-ΔS/T2m)” for “(ROR1-TKA2+TKA3m)”

[4] = test system: ROR1; test: Western blotting of changes over time in ROR1 expression after siROR1 transfection; details: NCI-H1975; 24 hours after transfection
Description: as §1, §2

[5] = test system: CAV1 and Cavin-1; test: IP-WB analysis of binding of endogenous CAV1 and Cavin-1 under ROR1 silencing; details: NCI-H1975 cell extract 24 hours after transfection
Description: as §1
In addition, IP-WB analysis was conducted after suspending the cells in lysis buffer containing octyl glucoside (10 mM Tris-HCl (pH 8.0), 0.15 M NaCl, 5 mM EDTA, 1% Triton X-100, 60 mM octyl glucoside) using NCI-H1975, NCI-H358, and SK-LU-1 cell lines, which are pulmonary adenocarcinoma cell lines, to confirm the binding of ROR1 and Cavin-1, ROR1 and CAV1, or Cavin-1 and IGF-IR.

## siROR1: RNA oligomer for RNAi against human ROR1, 5′-CAGCAAUGGAUGGAAUUUCAA-3′ (SEQ ID No: 13) (listed as RNA, further chemistry not given here)
[1]; NCI-H441, NCI-H358 and PC-9, siRNA 20 nM, 72 hours after transfection
  CAV1 expression (Western blot): downregulation of CAV1 was found
[1]; NCI-H1975, after 48 hours
  CAV1 expression (Western blot): downregulation of CAV1 was seen
[2]
  number of normal caveolae in random regions on the cell membrane: decreases significantly
[3]; NCI-H1975 stable clones expressing ROR1-KDm (kinase activity-deficient, silent mutation)
  CAV1 expression (Western blot): downregulation of CAV1 was not seen
[3]; NCI-H1975 stable clones expressing ROR1-WT
  CAV1 expression (Western blot): downregulation of CAV1
[3]; NCI-H1975 stable clones expressing ROR1-WTm (silent mutation against siROR1)
  CAV1 expression (Western blot): downregulation of CAV1 was not seen
[3]; PC-9 transfected with ROR1-AS/T2m (CAV1 binding region deleted, silent mutation)
  CAV1 expression (Western blot): expression of CAV1 was lowered
[3]; PC-9 transfected with ROR1-TKA2+TKA3m (cavin-1 binding region deleted, silent mutation)
  CAV1 expression (Western blot): expression of CAV1 was lowered
[4]
  ROR1 expression (Western blot): lowered the expression of ROR1
[5]
  binding of endogenous CAV1 and Cavin-1 (IP-WB): decreases the binding
